Patent US8093288B2, “Genipin derivatives and uses thereof” (Beth Israel Deaconess Medical Center, priority 2003, dated 2012)
Entries after “also recorded” stand apart in the source; their conditions may differ.

How the values were obtained:
[1] = system: pancreatic islets from wildtype mice; assay: Insulin secretion in isolated pancreatic islets from wildtype mice; format: cell-based; conditions: 5.5 mM glucose; 50 nM, 0.5 μM and 5 μM genipin; 37° C. for 60 min; WT islets; FIG. 4 / FIG. 11B
Method: (§1) As used or herein, pancreatic islets from wildtype and UCP2 knockout mice were isolated according to a method used for rats (Cawthorn and Chan, Mol. Cell. Endocrinol. 1991, 75:197-204, the entire teachings of which are incorporated herein by reference), except that the total exposure to type XI collagenase (Worthington Biochemical Co., NJ) was 30 min. and the Ficoll gradient was altered to layers of 25%, 23%, 21%, and 11%. Islets were harvested from the 11%-21% interface.
(§2) Islets were cultured in RPMI medium containing 11.0 mM glucose and supplemented with 1% penicillin-streptomycin. 7.5% fetal bovine serum (all from Gibco/BRL, Burlington, ON), and 10 mM Hepes (Sigma). After culturing for 20-24 hr, the islets were transferred to microcentrifuge tubes, pelleted (800 g for 5 min), and the medium aspirated and replaced with 1.0 mL DME medium containing 1% gelatin and 5.5 mM glucose with no genipin (control), 50 nM genipin, 0.5 μM genipin, and 5 μM genipin. For insulin secretion studies, the three islets were incubated per tube. After incubation at 37° C. for 60 min., the islets were centrifuged. The supernatant was collected and stored at −80° C., and then later assayed for insulin using Rat Insulin ELISA Kit (Cat. No. INSKR020, Crystal Chem., Inc., Chicago, Ill.).
(§3) FIGS. 11B and 11C show their effects on insulin secretion. Pancreatic islets were isolated from WT or UCP2 knockout (KO) mice. […]

[2] = system: pancreatic islets from UCP2 knockout mice; assay: Insulin secretion in isolated pancreatic islets from UCP2 knockout mice; format: cell-based; conditions: 5.5 mM glucose, 50 nM, 0.5 μM and 5 μM genipin, 37° C. for 60 min, FIG. 4 / FIG. 11B
Method: as §1, §2, §3

Question: What does the source list for `COC(=O)C1=CO[C@@H](O)[C@@H]2C(CO)=CC[C@H]12` [genipin]?
Answer: insulin secretion [1]: increases insulin secretion in a dose-dependent manner; insulin secretion [2]: does not increase insulin secretion; also recorded: no effect on insulin secretion
